# Data as given in the Kinase Knowledgebase extract (Sharma et al. 2016).
# Target: PIK3CA (human) (UniProt P42336)
# Test: Assessment of PIK3CA Kinase Activity
# Sequence of PIK3CA (human) (P42336 whole entry, looked up): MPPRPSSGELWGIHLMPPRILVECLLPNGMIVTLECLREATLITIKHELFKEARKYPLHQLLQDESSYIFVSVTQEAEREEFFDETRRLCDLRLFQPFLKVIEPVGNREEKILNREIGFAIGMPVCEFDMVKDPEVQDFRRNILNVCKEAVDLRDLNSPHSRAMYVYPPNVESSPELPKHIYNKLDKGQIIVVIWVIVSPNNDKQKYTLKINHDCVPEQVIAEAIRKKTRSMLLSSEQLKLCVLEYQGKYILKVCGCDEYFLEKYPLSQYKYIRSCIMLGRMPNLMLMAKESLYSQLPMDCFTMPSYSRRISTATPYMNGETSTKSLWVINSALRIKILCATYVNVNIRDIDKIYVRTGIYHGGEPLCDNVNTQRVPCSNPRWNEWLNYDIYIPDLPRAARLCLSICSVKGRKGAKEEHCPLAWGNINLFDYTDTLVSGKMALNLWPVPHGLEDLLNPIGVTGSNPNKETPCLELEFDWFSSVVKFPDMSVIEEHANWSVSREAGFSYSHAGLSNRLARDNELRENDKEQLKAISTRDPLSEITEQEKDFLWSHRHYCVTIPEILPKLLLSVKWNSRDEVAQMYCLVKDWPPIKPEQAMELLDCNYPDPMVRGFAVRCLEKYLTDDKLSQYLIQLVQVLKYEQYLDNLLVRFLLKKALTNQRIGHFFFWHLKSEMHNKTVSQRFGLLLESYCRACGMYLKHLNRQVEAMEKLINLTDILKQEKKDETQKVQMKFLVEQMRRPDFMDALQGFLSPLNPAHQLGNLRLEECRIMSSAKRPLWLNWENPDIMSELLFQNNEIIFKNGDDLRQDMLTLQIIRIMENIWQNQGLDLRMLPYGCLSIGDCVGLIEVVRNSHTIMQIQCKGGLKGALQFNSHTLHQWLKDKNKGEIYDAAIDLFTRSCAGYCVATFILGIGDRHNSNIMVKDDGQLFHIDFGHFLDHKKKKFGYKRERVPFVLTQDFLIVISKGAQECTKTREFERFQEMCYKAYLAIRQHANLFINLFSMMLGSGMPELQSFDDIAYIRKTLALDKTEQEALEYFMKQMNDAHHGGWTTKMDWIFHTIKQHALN
row,IC50 [nM],SMILES
1,< 1000,CC(=O)Nc1ccc(-c2ccc3c(c2)OCCn2cc(-c4nc(C)nn4C(C)C)nc2-3)cn1
2,< 1000,CC(C)n1ncnc1-c1cn2c(n1)-c1cnc(O[C@@H](C)C(N)=O)cc1OCC2
